From patent US5756291A, “Aptamers specific for biomolecules and methods of making” (priority 1995, dated 1998)
Values joined by “and” are separate entries in the source; they are usually repeats but may differ in a detail not shown here. Identical values can stand only once.

How the values were obtained:
thrombin [1] = test: Nitrocellulose filter binding, dissociation constant for thrombin; parameters: species or system human
Experimental: Filter binding assays using aptamer DNA from 14 of the clones were used to determine the dissociation constants (KD) for thrombin as follows: Thrombin concentrations between […] and 1 nM were incubated at room temperature in selection buffer for 5 minutes in the presence of […] of radiolabeled 96-mer derived from cloned Round 5 aptamer DNA. After incubation, the thrombin and aptamer mixture was applied to nitrocellulose filters (0.2 micron, 2.4 cm diameter) that were pretreated with salmon sperm DNA (1 mg/ml DNA in selection buffer) and washed twice with 1 ml selection buffer. After application of thrombin mixture, the filters were washed three times with 1 ml selection buffer. The radioactivity retained on the filters was then determined. KD values for the individual clones ranged from 50 to >2000 nM.
One of these two clones (#17) and the original unselected pool was analyzed for thrombin binding by nitrocellulose filter assay described above using DNA labeled with ^32 P to permit analysis of thrombin binding characteristics. The labeled DNA was synthesized by PCR and contained 5-(1-pentynyl)-2'-deoxyuridine in order to retain the original selected DNA structures. The DNA was incubated with thrombin at various concentrations between 10 nM and 10M to obtain the KD values for thrombin binding. The KD of the unselected pool was […] while the KD of clone 17 was 400 nM. […]

thrombin [2] = test: Filter binding specificity assay (Table 11), thrombin; conditions: DNA about 1 nM
Experimental: (§1) Briefly, radiolabeled aptamer DNA at about a concentration of about 1 nM was incubated with the indicated protein for several minutes at room temperature, followed by filtration of the aptamer-protein mixture through a nitrocellulose filter. The filter was washed with 3 mL of selection buffer and then radioactivity bound to the filters was determined as a % of input radioactivity. Binding data is shown for both unselected 96-mer DNA and for two separate experiments with clone #29 96-mer. All proteins were tested at about 1M concentration except human serum albumin which was used at 100M.

Prothrombin = test: Filter binding specificity assay (Table 11), prothrombin; parameters: dose or concentration left out as unconfirmed; conditions: listed as Clone 29 DNA
Experimental: as §1

human serum albumin = test: Filter binding specificity assay (Table 11), albumin; conditions: human serum albumin 100 µM; listed as Clone 29 DNA
Experimental: as §1

Chymotrypsin = test: Filter binding specificity assay (Table 11), chymotrypsin; conditions: Chymotrypsin about 1 µM
Experimental: as §1

Trypsin = test: Filter binding specificity assay (Table 11), trypsin; parameters: dose or concentration left out as unconfirmed
Experimental: as §1

Kallikrein = test: Filter binding specificity assay (Table 11), kallikrein; conditions: Kallikrein about 1 µM
Experimental: as §1

Plasmin = test: Filter binding specificity assay (Table 11), plasmin; parameters: dose or concentration left out as unconfirmed
Experimental: as §1

TPA = test: Filter binding specificity assay (Table 11), TPA; conditions: TPA about 1 µM
Experimental: as §1

thrombin [3] = test: Clotting time, thrombin-catalyzed conversion of fibrinogen to fibrin; format: biochemical; conditions: thrombin 10 nM
Experimental: Clotting time for the thrombin-catalyzed conversion of fibrinogen (2.0 mg/ml in selection buffer) to fibrin at 37 C. was measured using a precision coagulation timer apparatus (Becton-Dickinson, Cat. nos. 64015, 64019, 64020). Thrombin (10 nM) incubated with fibrinogen alone clotted in 40 sec, thrombin incubated with fibrinogen and P1 nuclease (Boehringer-Mannheim, Indianapolis, Ind.) clotted in 39 sec, thrombin incubated with fibrinogen and aptamer clone #5 (200 nM) clotted in 115 sec, and thrombin incubated with fibrinogen, clone #5 (200 nM) and […] clotted in 40 sec. All incubations were carried out at 37 C. using reagents prewarmed to 37 C. Aptamer DNA or, when present, P1 nuclease, was added to the fibrinogen solution prior to addition of thrombin.

ancrod = test: Ancrod fibrinogen clotting assay; format: biochemical
Experimental: The thrombin 21-mer ancrod assay was conducted as follows. Ancrod was suspended in sterile water at a concentration of 44 U/mL. 10 L ancrod solution was added to 95 L of selection buffer prewarmed to 37 C. 100 L of this mixture was transferred to the coagulation cup of the fibrometer described above, followed by addition of 200 L of fibrinogen and 20 L of 21-mer DNA (both prewarmed to 37 C). TE buffer pH 7.0 was used as a control lacking DNA. The control clot time was 25 seconds while the clot time in the presence of 500 nM 21-mer was 24 seconds and was 26 seconds in the presence of 33M 21-mer.

thrombin [4] = test: Thrombin inhibition Ki; format: biochemical; conditions: Table 7
Text: The binding affinity of the aptamers herein with respect to targets and other molecules is defined in terms of Kd. The value of this dissociation constant can be determined directly by well-known methods, and can be computed even for complex mixtures by methods such as those, for example, set forth in Caceci, M., et al., Byte (1984) 9:340-362. It has been observed, however, that for some small oligonucleotides, direct determination of Kd is difficult, and can lead to misleadingly high results. Under these circumstances, a competitive binding assay for the target molecule or other candidate substance may be conducted with respect to substances known to bind the target or candidate. The value of the concentration at which 50% inhibition occurs (Ki) is, under ideal conditions, equivalent to Kd. However, in no event can Ki be less than Kd. Thus, determination of Ki, in the alternative, sets a maximal value for the value of Kd. Under those circumstances where technical difficulties preclude accurate measurement of Kd, measurement of Ki can conveniently be substituted to provide an upper limit for Kd.
Independent verification of the Ki for the nonmodified 15-mer was made by determining the extent of thrombin inhibition with varying DNA concentration.

thrombin [5] = test: Prothrombin time test (PT) after intravenous aptamer in monkeys; format: in vivo, cynomologous monkeys; conditions: high dose infusion 0.5 mg/kg/min
Experimental: Two thrombin aptamers were administered to adult male cynomologous monkeys. Unsubstituted 15-mer DNA with the sequence 5' GGTTGGTGTGGTTGG 3' and an analog, 5' GGTTGGTGTGGTT*G*G 3', containing thioate internucleotide linkages at the indicated positions were used. Aptamer was delivered as an intravenous bolus or infusion and then blood samples were withdrawn at various times after delivery of the bolus or during and after infusion. The catheter was heparinized after the 10 minute timepoint. The animals were not systematically heparinized.
Thrombin inhibition was measured by a prothrombin time test (PT) using a commercially available kit, reagents and protocol (Sigma Diagnostics, St. Louis, catalog Nos. T 0263 and 870-3). Inhibition of thrombin was indicated by an increased clot time compared to the control in the PT test. Clot times were obtained by withdrawing a sample of blood, spinning out red cells and using the plasma in the PT test. Control thrombin PT clot time values were obtained several minutes prior to administration of aptamer. Briefly, the PT assay was conducted using 0.1 mL of monkey plasma prewarmed to 37 C. and 0.2 mL of a 1:1 mixture of thromboplastin (used according to manufacturers instructions) and CaCl2 (25 mM), also prewarmed to 37 C. Thrombin clot times were measured with a fibrometer as described above. […]

human blood = test: Extracorporeal hemodialysis circuit blood coagulation; conditions: heparin 1 U/mL
Experimental: A bolus of 15-mer DNA was delivered to human blood at 37 C. to give an aptamer concentration of 10M. The blood was contained in an extracorporeal hemodialysis circuit (Travenol, Model No. CA-90). Pressure proximal to the hemodialysis filter was monitored to determine the time after administration of aptamer that coagulation occurred. Blood coagulation was marked by a pressure increase from about 50 mm Hg observed with uncoagulated blood (blood flow rate 200 mL/min) to pressure of at least 400 mm Hg.

Question: Which Kd (thrombin [1]) does the source give for “5' CGGGGAGAGGTTGGTGTGGTTGGCAATGGCTAGAGTAGTGAC GTTTTCGCGGTGAGGTCC 3' [Clone #29]” here?
Answer: Its Kd is roughly 200 nM.

Question: What about the “% Bound” value (thrombin [2]; Control, no protein) of the same substance?
Answer: Its value is 0%.

Question: What about the “% Bound” value (thrombin [2]; Thrombin about 1 µM) of the same substance?
Answer: The value was 59.0%.

Question: What about the “% Bound” value (Prothrombin) of the same substance?
Answer: Its value is 11.0% and 9.5%.

Question: And the “% Bound” value (human serum albumin)?
Answer: The value was 2.0% and < 0.5%.

Question: What about the “% Bound” value (Chymotrypsin) of the same substance?
Answer: Its value is less than 0.5%.

Question: And the “% Bound” value (Trypsin)?
Answer: The value was less than 0.5%.

Question: And the “% Bound” value (Kallikrein)?
Answer: Its value is less than 0.5%.

Question: What about the “% Bound” value (Plasmin) of the same substance?
Answer: The value was 15.0%.

Question: What about the “% Bound” value (TPA) of the same substance?
Answer: The value was less than 0.5%.

Question: How did the thrombin clotting time (thrombin [3]) turn out when 5' GGGGGTT 3' [reference compound] was run?
Answer: The thrombin clotting time was 26 s.

Question: With 5' GGTTGGG 3' as the substance, how does the thrombin clotting time (thrombin [3]) read?
Answer: Its thrombin clotting time is 38 s.

Question: How did the clot time (ancrod; 500 nM 21-mer) turn out when “5' GGTTGGGCTGGTTGGGTTGGG 3' (chemistry not given here) [Compound 21-mer, 21-mer thrombin aptamer]” was run?
Answer: The clot time was 24 s.

Question: What about the clot time (ancrod; 21-mer) of the same substance?
Answer: The clot time was 26 s.

Question: For 5' GGTTGGTGTGGTT*G*G 3', which Ki (thrombin [4]) is on record?
Answer: Its Ki is 40 nM.

Question: What about the “PT clot time during infusion” value (thrombin [5]) of the same substance?
Answer: Its value is 2.5 to 2.7 times the control value.

Question: How did the Ki (thrombin [4]) turn out when “G*G*T*T*G*G*T*G*T*G*G*T*T*G*G: 15-mer with all thioate linkages” was run?
Answer: Its Ki is 280 nM.

Question: With “GG(dU)TGGTGTGG(dU)TGG: 15-mer with uracil for thymine” as the substance, how does the Ki (thrombin [4]) read?
Answer: Its Ki is 80 nM.

Question: “GGTTGG(dU)G(dU)GGTTGG: 15-mer with uracil for thymine” was tested. Which Ki (thrombin [4]) did it give?
Answer: The Ki was 15 nM.

Question: With “GGTTGGTGTGGTTGG#G#T: closely related 17-mer with MEA linkages” as the substance, how does the Ki (thrombin [4]) read?
Answer: The Ki was 35 nM.

Question: Which Ki (thrombin [4]) does the source give for “GGTTGGTGTGGTU'GG: 15-mer with 5-(1-pentynyl)uracil” here?
Answer: Its Ki is 20 nM.

Question: For heparin, which “time to blood coagulation in hemodialysis unit” value (human blood) is on record?
Answer: The value was greater than 80 min.
